Laboratory results: article PMC12297016 (Iranian Journal of Pharmaceutical Research : IJPR, 2025)

Tests used:
[1] = target: T1, recombinant human matrix metalloproteinase 9 (rhMMP-9) (Homo sapiens, UniProt P14780); experiment: Protease activity assay of rhMMP-9 with casein as substrate; assay type: biochemical; conditions: for α: KI = α × Ki; for type of inhibition: Lineweaver-Burk and secondary plots, mixed type; for IC50: casein degradation assay, inhibitor 0 to 70 µM, read-out: IC50 of rhMMP-9 activity inhibition; for Ki: dissociation constant of EI complex, from secondary plot of slope against [I]; for αKi (KI): dissociation constant of ESI complex, from Dixon plot of 1/V'max against [I]; for K m: casein substrate
T1 construct: amino acid residues from 107 to 707, consisted of the catalytic domain (Phe107 to Gly223); His-tag; made in house; host or cells: Escherichia coli BL21 (DE3), vector pET21a(+)
Experimental: To determine the hydrolyzing activity of rhMMP-9, casein was used as a substrate. A casein solution (1% w/v) was added to the extracted and purified rhMMP-9, and the final volume was adjusted to 1 mL with Tris buffer (pH 7). The expression product and substrate mix were incubated with shaking for 5 minutes at 37°C. To stop the process, 1 mL of cold trichloroacetic acid (TCA, 15%) was added to the mixture. This mixture was then kept at -20°C for 10 minutes and centrifuged twice (8000 g, 5 min, 4°C) to separate soluble peptides. The pellet was discarded, and the absorbance of the supernatant soluble peptides fraction was evaluated at 280 nm. All spectrophotometric measurements were accompanied by a blank assay in the absence of the enzyme. Enzyme activity was calculated from the tyrosine standard curve and expressed as mean ± SD in units of [µmol/min] after at least five repeats ([22]). SPSS software version 9 was used for data interpretation, and all graphs were drawn and kinetic parameters calculated using an Excel spreadsheet software program. The Quest Graph IC50 Calculator was used for the calculation of IC50 values.
A cell-free casein degradation-based assay was employed to evaluate the influence of ellagitannins on the catalytic activity of the rhMMP-9 enzyme. By adding various fixed quantities of casein as a substrate and a fixed concentration of enzyme, the enzyme activity was determined in the presence of different concentrations of ellagitannins (ranging from 0 to 70 µM). The rate of tyrosine production by the protease activity of rhMMP-9 was assessed based on a calibration curve over 1 minute, which refers to enzyme activity.
To examine the effects of inhibitors on the kinetic parameters of rhMMP-9, Michaelis-Menten saturation curves and Lineweaver-Burk plots were drawn in the presence of various concentrations of inhibitors (5 - 30 µM) and substrate range (0 - 0.3%) (Figure 4).
The first of these is a Dixon plot of 1/Vʹmax against the concentration of inhibitor [I], from which the value of -αKi as the x-intercept can be determined (Figure 5A - C). The second is the slope of the primary plot (from the Lineweaver-Burk plot) against the concentration of inhibitor [I], from which the value of -Ki as the x-intercept can be determined (Figure 5D - F).

[2] = target: T1, recombinant human matrix metalloproteinase 9 (rhMMP-9); experiment: Surface plasmon resonance (SPR) binding to immobilized rhMMP-9; conditions: 37°C, 5-40 µM
Text: A dual-flow channel MP-SPR Navi 210A analyzer (BioNavis Ltd., Tampere-region, Finland) was used to evaluate SPR kinetic parameters on gold chips (BioNavis Ltd., Finland). A solution of both EDC/NHS ((N-(3-dimethylaminopropyl)-N′-ethylcarbodiimide hydrochloride) (0.2 M) and NHS (N-hydroxysuccinimide) (0.05 M)) was employed for the activation of […] carboxylic groups. Immobilization of the rMMP-9 enzyme on the CMD Au chip was accomplished by a standard amine coupling protocol. For blocking unreacted sites, ethanolamine–HCl (1 M, pH 8.5) reagent was used.
The SPR technique, a current method for examining the interaction between ligand and protein, was employed in this research. As presented in Figure 6, association (Ka) and dissociation (Kd) constants were evaluated through sensorgrams (RU vs. time). Five […] concentrations for each of the three natural compounds were used (5, 10, 20, 30, 40 µM).
The equilibrium constant KD, which evaluates the affinity of a ligand to a protein, was determined using the formula: =Kd/Ka . A lower value of the KD constant indicates a higher interaction affinity between the protein and ligand.

T1 sequence (P14780 107-707): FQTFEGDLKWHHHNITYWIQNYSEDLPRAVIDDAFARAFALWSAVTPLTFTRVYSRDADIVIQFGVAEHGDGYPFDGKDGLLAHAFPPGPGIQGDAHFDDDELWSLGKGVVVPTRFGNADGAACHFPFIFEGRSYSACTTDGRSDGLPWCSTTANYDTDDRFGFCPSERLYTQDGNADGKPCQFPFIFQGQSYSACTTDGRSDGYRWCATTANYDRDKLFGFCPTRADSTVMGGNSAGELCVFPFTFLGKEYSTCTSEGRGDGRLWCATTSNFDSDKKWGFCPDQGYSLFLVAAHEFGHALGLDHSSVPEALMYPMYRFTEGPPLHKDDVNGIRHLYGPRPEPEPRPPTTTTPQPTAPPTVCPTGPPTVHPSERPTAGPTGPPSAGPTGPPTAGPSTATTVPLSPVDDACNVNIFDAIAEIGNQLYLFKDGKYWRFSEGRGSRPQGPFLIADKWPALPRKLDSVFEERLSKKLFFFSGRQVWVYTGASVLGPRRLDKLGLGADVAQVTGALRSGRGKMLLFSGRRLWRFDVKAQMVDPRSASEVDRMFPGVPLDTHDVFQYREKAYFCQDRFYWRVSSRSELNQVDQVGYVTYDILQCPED

| α [1] | type of inhibition [1] | IC50 [1] [µM] | Ki [1] [µM] | αKi (KI) ([1]; in µM) | reduction of catalytic activity ([1]; high concentration (60 µM)) [%] | V max ([1]; inhibitor 15 µM) [µmol/min] | K m ([1]; inhibitor 15 µM) [%] | V max ([1]; inhibitor 30 µM) [µmol/min] | K m ([1]; inhibitor 30 µM) [%] | Kd [2] [µM] | αKi (KI) [1] [µM] | extent of inhibition of catalytic activity at high concentrations [1] | V max ([1]; inhibitor 5 µM) [µmol/min] | K m ([1]; inhibitor 5 µM) [%] | SMILES |
| --- | --- | --- | --- | --- | --- | --- | --- | --- | --- | --- | --- | --- | --- | --- | --- |
| 1.11 | competitive-non-competitive pattern | 17.1 | 24.9 | 27.57 | 90 | 0.093 ± 0.005 | 0.03 ± 0.002 | 0.078 ± 0.004 | 0.03 ± 0.002 | 113 | – | – | – | – | O=c1oc2c(O)c(O)cc3c(=O)oc4c(O)c(O)cc1c4c23 [EA, ellagic acid] |
| 0.25 | non-competitive-uncompetitive pattern | 33.3 | 12 | – | – | 0.04 ± 0.002 | 0.1 ± 0.005 | – | – | 67 | 3.03 | entirely inhibit | 0.120 ± 0.006 | 0.085 ± 0.004 | O=c1oc2cc(O)ccc2c2ccc(O)cc12 [Uro A, urolithin A] |
| 0.13 | non-competitive-uncompetitive pattern | 13.2 | 22.5 | – | – | 0.033 ± 0.002 | 0.020 ± 0.001 | – | – | 43 | 3.02 | entirely inhibit | 0.079 ± 0.004 | 0.030 ± 0.002 | O=c1oc2cc(O)ccc2c2ccccc12 [Uro B, urolithin B] |
